# Data reported in ChEMBL document CHEMBL4028801, “A multifactorial approach to hepatobiliary transporter assessment enables improved therapeutic compound development” (Toxicol Sci, 2013).
# Where a name gives a salt, the structure may show the parent alone.
# Legend:
# [1] = biological target: ATP-binding cassette sub-family C member 2 (Homo sapiens, UniProt Q92887); experiment: Inhibition of human MRP2 overexpressed in Sf9 cell membrane vesicles assessed as uptake of [3H]-estradiol-17beta-D-glucuronide in presence of ATP and GSH measured after 20 mins by membrane vesicle transport assay
# Sequence of ATP-binding cassette sub-family C member 2 (Q92887 whole entry): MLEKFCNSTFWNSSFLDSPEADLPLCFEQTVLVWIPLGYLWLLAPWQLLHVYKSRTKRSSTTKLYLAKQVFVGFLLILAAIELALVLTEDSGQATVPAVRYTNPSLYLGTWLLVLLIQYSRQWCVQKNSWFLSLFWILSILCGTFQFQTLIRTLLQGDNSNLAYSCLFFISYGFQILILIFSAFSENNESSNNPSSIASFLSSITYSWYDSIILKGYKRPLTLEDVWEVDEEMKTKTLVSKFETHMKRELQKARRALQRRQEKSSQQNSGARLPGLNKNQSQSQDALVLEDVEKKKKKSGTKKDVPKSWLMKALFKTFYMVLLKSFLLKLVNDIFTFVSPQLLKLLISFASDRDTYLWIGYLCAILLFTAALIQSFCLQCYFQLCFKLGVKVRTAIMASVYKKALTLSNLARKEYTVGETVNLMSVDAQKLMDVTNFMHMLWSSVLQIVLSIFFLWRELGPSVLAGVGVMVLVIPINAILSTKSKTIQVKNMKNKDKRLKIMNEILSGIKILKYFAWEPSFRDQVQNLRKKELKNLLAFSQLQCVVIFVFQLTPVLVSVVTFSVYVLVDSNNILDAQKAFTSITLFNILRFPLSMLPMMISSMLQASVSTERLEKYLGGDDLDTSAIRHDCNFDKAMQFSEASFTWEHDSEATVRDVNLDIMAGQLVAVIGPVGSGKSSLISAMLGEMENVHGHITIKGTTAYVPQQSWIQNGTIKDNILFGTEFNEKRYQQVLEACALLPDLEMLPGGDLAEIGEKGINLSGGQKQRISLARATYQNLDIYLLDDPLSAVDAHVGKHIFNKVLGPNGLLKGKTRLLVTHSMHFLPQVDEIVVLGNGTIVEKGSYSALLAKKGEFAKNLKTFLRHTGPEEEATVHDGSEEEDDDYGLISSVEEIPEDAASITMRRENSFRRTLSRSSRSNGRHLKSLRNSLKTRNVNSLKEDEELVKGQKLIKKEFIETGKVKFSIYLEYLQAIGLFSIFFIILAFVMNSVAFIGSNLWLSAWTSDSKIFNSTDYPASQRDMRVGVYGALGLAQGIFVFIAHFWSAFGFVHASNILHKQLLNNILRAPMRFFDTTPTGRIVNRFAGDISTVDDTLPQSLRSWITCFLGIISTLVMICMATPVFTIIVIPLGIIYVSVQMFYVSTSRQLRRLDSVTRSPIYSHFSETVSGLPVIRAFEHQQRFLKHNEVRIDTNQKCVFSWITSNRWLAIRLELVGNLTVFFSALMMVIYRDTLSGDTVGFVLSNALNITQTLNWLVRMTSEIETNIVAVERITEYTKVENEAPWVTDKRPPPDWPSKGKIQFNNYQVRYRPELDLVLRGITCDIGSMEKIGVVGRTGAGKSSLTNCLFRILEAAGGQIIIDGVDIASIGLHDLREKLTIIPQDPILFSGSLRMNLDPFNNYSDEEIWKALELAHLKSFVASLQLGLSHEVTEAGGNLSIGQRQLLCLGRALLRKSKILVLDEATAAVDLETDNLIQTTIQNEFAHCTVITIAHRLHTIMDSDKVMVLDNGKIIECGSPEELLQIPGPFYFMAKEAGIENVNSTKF
# [2] = biological target: T1, ATP-binding cassette sub-family C member 4 (Homo sapiens, UniProt O15439); experiment: Inhibition of human MRP4 overexpressed in Sf9 cell membrane vesicles assessed as uptake of [3H]-estradiol-17beta-D-glucuronide in presence of ATP and GSH measured after 20 mins by membrane vesicle transport assay; assay type: ADME, cell-based
# T1 sequence (O15439 whole entry): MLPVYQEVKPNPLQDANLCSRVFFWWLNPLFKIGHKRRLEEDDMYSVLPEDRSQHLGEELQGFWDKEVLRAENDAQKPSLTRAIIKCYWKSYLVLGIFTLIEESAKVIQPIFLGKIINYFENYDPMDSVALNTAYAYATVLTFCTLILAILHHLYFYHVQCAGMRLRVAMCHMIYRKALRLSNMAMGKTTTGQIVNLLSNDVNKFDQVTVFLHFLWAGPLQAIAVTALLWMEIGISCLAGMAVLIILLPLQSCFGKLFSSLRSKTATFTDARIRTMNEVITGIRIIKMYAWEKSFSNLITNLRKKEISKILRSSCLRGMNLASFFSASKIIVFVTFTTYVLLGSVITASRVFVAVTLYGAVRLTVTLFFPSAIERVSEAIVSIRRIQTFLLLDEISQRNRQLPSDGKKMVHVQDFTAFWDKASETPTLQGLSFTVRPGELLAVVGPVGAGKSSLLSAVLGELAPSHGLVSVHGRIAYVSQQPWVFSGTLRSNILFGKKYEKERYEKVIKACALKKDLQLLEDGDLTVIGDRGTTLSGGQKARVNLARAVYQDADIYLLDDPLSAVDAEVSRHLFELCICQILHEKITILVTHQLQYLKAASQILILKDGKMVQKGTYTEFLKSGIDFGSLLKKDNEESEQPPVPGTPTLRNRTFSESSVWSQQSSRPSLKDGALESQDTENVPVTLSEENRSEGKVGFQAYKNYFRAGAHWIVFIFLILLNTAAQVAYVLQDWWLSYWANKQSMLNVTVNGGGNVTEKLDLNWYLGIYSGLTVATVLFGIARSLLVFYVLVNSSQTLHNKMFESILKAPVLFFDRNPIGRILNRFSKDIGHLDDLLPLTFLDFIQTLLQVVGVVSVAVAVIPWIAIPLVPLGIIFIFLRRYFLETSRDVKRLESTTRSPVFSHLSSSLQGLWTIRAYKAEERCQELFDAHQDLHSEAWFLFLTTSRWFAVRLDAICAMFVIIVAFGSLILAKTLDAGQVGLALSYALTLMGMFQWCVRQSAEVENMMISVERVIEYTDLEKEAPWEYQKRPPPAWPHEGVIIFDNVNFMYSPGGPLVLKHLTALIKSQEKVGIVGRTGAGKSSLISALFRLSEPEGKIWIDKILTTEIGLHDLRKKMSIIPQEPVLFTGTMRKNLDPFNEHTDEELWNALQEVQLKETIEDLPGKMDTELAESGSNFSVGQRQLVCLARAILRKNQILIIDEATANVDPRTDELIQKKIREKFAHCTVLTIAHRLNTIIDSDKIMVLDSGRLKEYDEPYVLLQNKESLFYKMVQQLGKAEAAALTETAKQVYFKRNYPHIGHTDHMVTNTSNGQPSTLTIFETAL
# [3] = biological target: Bile salt export pump (Homo sapiens, UniProt O95342); experiment: Inhibition of human BSEP overexpressed in Sf9 cell membrane vesicles assessed as uptake of [3H]-taurocholate in presence of ATP measured after 15 to 20 mins by membrane vesicle transport assay; assay type: ADME, cell-based
# Sequence of Bile salt export pump (O95342 whole entry): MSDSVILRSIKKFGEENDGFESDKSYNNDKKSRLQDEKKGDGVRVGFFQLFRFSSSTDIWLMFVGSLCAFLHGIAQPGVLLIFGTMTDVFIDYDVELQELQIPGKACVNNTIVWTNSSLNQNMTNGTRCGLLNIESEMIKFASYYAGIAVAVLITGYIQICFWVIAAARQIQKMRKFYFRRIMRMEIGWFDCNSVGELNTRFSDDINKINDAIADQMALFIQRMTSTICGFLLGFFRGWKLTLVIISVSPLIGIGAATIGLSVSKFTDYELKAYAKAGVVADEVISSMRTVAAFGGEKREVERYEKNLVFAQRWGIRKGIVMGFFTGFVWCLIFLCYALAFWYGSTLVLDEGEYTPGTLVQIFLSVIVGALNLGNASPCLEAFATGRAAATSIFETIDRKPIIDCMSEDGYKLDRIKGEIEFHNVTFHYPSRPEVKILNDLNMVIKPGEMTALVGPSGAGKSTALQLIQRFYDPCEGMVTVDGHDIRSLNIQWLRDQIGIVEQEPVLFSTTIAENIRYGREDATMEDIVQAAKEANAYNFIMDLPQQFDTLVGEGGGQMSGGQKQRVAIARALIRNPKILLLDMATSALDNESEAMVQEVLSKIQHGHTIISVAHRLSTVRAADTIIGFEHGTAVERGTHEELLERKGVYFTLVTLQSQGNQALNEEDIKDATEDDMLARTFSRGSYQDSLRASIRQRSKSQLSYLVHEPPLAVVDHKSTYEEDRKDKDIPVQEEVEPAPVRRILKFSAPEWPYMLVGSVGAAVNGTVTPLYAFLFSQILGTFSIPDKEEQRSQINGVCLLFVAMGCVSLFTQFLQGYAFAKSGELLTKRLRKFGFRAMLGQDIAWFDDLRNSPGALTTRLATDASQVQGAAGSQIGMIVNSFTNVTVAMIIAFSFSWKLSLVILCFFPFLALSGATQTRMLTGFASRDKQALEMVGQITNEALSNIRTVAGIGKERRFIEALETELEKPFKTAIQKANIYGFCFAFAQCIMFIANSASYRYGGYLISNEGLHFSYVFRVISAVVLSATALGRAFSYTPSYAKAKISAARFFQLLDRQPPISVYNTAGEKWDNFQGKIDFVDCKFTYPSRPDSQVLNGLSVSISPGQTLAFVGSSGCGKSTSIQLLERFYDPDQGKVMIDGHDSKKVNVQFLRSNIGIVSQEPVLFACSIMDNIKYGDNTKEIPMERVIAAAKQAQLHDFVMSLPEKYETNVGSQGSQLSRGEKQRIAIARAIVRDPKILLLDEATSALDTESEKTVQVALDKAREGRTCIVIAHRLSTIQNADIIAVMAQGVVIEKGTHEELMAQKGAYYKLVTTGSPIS
# [4] = biological target: ATP-binding cassette sub-family C member 3 (Homo sapiens, UniProt O15438); experiment: Inhibition of human MRP3 overexpressed in Sf9 insect cell membrane vesicles assessed as uptake of [3H]-estradiol-17beta-D-glucuronide in presence of ATP and GSH measured after 10 mins by membrane vesicle transport assay; assay type: ADME, cell-based
# Sequence of ATP-binding cassette sub-family C member 3 (O15438 whole entry): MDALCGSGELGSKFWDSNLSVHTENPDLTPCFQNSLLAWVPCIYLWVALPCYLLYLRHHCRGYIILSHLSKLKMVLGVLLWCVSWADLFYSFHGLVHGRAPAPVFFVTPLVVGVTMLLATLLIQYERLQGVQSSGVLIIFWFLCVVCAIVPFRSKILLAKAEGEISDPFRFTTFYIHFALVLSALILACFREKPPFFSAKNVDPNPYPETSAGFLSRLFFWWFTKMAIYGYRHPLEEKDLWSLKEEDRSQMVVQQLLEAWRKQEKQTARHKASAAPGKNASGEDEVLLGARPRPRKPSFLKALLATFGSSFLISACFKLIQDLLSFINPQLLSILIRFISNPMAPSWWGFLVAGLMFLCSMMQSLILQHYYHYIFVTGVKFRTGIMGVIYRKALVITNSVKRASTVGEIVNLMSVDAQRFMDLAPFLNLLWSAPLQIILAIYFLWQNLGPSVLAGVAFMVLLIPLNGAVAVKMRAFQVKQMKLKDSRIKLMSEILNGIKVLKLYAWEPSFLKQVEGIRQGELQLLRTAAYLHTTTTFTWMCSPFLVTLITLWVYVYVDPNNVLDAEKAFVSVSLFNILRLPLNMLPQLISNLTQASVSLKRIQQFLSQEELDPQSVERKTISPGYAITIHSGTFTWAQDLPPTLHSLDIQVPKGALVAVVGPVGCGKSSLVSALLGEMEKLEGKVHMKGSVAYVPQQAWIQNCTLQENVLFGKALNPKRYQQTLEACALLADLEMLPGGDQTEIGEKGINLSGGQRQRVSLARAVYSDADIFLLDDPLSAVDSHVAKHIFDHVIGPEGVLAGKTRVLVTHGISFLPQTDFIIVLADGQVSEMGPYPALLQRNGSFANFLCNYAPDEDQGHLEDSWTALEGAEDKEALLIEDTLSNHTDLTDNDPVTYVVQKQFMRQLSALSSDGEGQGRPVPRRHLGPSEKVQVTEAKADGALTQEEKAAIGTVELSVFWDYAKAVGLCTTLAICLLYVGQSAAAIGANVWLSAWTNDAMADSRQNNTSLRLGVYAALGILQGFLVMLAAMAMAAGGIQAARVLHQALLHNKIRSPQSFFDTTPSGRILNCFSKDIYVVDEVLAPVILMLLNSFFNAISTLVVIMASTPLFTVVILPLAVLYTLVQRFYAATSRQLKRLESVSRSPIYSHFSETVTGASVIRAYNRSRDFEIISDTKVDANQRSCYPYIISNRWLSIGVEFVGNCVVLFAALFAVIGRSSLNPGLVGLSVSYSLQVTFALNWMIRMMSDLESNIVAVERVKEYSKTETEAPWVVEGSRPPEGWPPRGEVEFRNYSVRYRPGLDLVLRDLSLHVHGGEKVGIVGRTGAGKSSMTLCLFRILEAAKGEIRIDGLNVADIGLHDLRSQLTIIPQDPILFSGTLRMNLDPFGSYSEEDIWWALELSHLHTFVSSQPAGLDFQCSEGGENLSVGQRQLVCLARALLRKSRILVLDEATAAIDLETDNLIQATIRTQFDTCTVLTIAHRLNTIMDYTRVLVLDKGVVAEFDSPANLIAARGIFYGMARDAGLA
Compound,IC50 [1],IC50 [2],IC50 [3],IC50 [4]
CN(C)CCC[C@@]1(c2ccc(F)cc2)OCc2cc(C#N)ccc21 [ESCITALOPRAM OXALATE],> 133 µM,> 133 µM,> 133 µM,> 133 µM
CN1CCN(C(=O)O[C@H]2c3nccnc3C(=O)N2c2ccc(Cl)cn2)CC1 [ESZOPICLONE],> 133 µM,> 133 µM,> 133 µM,> 133 µM
C#C[C@]1(O)CC[C@H]2[C@@H]3CCc4cc(O)ccc4[C@H]3CC[C@@]21C [ETHINYL ESTRADIOL],> 133 µM,> 133 µM,14 µM,> 133 µM
CCC1(C)CC(=O)NC1=O (stereo not drawn) [ETHOSUXIMIDE],> 133 µM,> 133 µM,> 133 µM,> 133 µM
CC(O)(P(=O)(O)O)P(=O)(O)O [ETIDRONATE DISODIUM],> 133 µM,> 133 µM,> 133 µM,> 133 µM
COc1cc([C@@H]2c3cc4c(cc3[C@@H](O[C@@H]3O[C@@H]5CO[C@@H](C)O[C@H]5[C@H](O)[C@H]3O)[C@H]3COC(=O)[C@H]23)OCO4)cc(OC)c1OP(=O)(O)O [ETOPOSIDE PHOSPHATE],> 133 µM,> 133 µM,> 133 µM,> 133 µM
Cc1ccc(-c2ncc(Cl)cc2-c2ccc(S(C)(=O)=O)cc2)cn1 [ETORICOXIB],> 133 µM,53 µM,53.2 µM,> 133 µM
CCOC(=O)/C=C(C)/C=C/C=C(C)/C=C/c1c(C)cc(OC)c(C)c1C [ETRETINATE],> 133 µM,> 133 µM,> 133 µM,> 133 µM
C=C1C[C@@H]2[C@H](CC[C@]3(C)C(=O)CC[C@@H]23)[C@@]2(C)C=CC(=O)C=C12 [EXEMESTANE],> 133 µM,> 133 µM,90 µM,> 133 µM
CC(=O)OCC(CCn1cnc2cnc(N)nc21)COC(C)=O [FAMCICLOVIR],> 133 µM,> 133 µM,> 133 µM,> 133 µM
NC(N)=Nc1nc(CSCCC(N)=NS(N)(=O)=O)cs1 [FAMOTIDINE],> 133 µM,> 133 µM,> 133 µM,> 133 µM
O=C(O)Cc1ccc(-c2ccccc2)cc1 [FELBINAC],> 133 µM,8.2 µM,> 133 µM,> 133 µM
Oc1ccc(C2CNCCc3c2cc(O)c(O)c3Cl)cc1 (stereo not drawn) [FENOLDOPAM MESYLATE],> 133 µM,> 133 µM,> 133 µM,> 133 µM
CC(C)=CCC1C(=O)N(c2ccccc2)N(c2ccccc2)C1=O [FEPRAZONE],> 133 µM,> 133 µM,73.9 µM,> 133 µM
CC(C)C(=O)Oc1ccc(CO)cc1[C@H](CCN(C(C)C)C(C)C)c1ccccc1 [FESOTERODINE FUMARATE],> 133 µM,> 133 µM,> 133 µM,> 133 µM
CN1CCN(c2c(F)cc3c(=O)c(C(=O)O)cn(CCF)c3c2F)CC1 [FLEROXACIN],> 133 µM,> 133 µM,> 133 µM,> 133 µM
COc1ccc(Cl)cc1[C@]1(F)C(=O)Nc2cc(C(F)(F)F)ccc21 [FLINDOKALNER],> 133 µM,> 133 µM,> 133 µM,> 133 µM
Nc1nc(=O)[nH]cc1F [FLUCYTOSINE],> 133 µM,> 133 µM,> 133 µM,> 133 µM
Nc1nc(F)nc2c1ncn2[C@@H]1O[C@H](COP(=O)(O)O)[C@@H](O)[C@@H]1O [FLUDARABINE PHOSPHATE],> 133 µM,> 133 µM,> 133 µM,> 133 µM

Compound,IC50 [1],IC50 [2],IC50 [3],IC50 [4]
CCOC(=O)c1ncn2c1CN(C)C(=O)c1cc(F)ccc1-2 [FLUMAZENIL],> 133 µM,> 133 µM,> 133 µM,> 133 µM
CC1(C)O[C@@H]2C[C@H]3[C@@H]4C[C@H](F)C5=CC(=O)C=C[C@]5(C)[C@H]4[C@@H](O)C[C@]3(C)[C@]2(C(=O)CO)O1 [FLUNISOLIDE],> 133 µM,> 133 µM,> 133 µM,> 133 µM
O=c1[nH]cc(F)c(=O)[nH]1 [FLUOROURACIL],> 133 µM,> 133 µM,> 133 µM,> 133 µM
CC(C)C(=O)Nc1ccc([N+](=O)[O-])c(C(F)(F)F)c1 [FLUTAMIDE],> 133 µM,> 133 µM,> 133 µM,> 133 µM
CCC(=O)O[C@]1(C(=O)SCF)[C@H](C)C[C@H]2[C@@H]3C[C@H](F)C4=CC(=O)C=C[C@]4(C)[C@@]3(F)[C@@H](O)C[C@@]21C [FLUTICASONE PROPIONATE],> 133 µM,> 133 µM,> 133 µM,> 133 µM
O=C(O)P(=O)(O)O [FOSCARNET SODIUM],> 133 µM,> 133 µM,> 133 µM,> 133 µM
C[C@]12CC[C@@H]3c4ccc(O)cc4C[C@@H](CCCCCCCCC[S+]([O-])CCCC(F)(F)C(F)(F)F)[C@H]3[C@@H]1CC[C@@H]2O (stereo partly drawn) [FULVESTRANT],> 133 µM,> 133 µM,> 133 µM,> 133 µM
COc1ccc2c3c1O[C@H]1C[C@@H](O)C=C[C@@]31CCN(C)C2 [GALANTAMINE],> 133 µM,> 133 µM,> 133 µM,> 133 µM
Nc1nc(O)c2ncn(COC(CO)CO)c2n1 [GANCICLOVIR],> 133 µM,> 133 µM,> 133 µM,> 133 µM
COc1c(N2CCNC(C)C2)c(F)cc2c(=O)c(C(=O)O)cn(C3CC3)c12 (stereo not drawn) [GATIFLOXACIN],> 133 µM,> 133 µM,> 133 µM,> 133 µM
Nc1ccn([C@@H]2O[C@H](CO)[C@@H](O)C2(F)F)c(=O)n1 [GEMCITABINE HYDROCHLORIDE],> 133 µM,> 133 µM,> 133 µM,> 133 µM
CO/N=C1\CN(c2nc3c(cc2F)c(=O)c(C(=O)O)cn3C2CC2)CC1CN (stereo not drawn) [GEMIFLOXACIN MESYLATE],> 133 µM,73.2 µM,> 133 µM,> 133 µM
C#C[C@]1(O)C=C[C@H]2[C@@H]3CCC4=CC(=O)CC[C@@H]4[C@H]3CC[C@@]21CC [GESTODENE],> 133 µM,> 133 µM,> 133 µM,> 133 µM
Cc1ccc(S(=O)(=O)NC(=O)NN2CC3CCCC3C2)cc1 (stereo not drawn) [GLICLAZIDE],> 133 µM,> 133 µM,> 133 µM,> 133 µM
CC(C)C[C@H](NC(=O)[C@@H](COC(C)(C)C)NC(=O)[C@H](Cc1ccc(O)cc1)NC(=O)[C@H](CO)NC(=O)[C@H](Cc1c[nH]c2ccccc12)NC(=O)[C@H](Cc1cnc[nH]1)NC(=O)[C@@H]1CCC(=O)N1)C(=O)N[C@@H](CCCNC(=N)N)C(=O)N1CCC[C@H]1C(=O)NNC(N)=O [GOSERELIN ACETATE],> 133 µM,> 133 µM,> 133 µM,> 133 µM
N=C(N)NC(=O)Cc1c(Cl)cccc1Cl [GUANFACINE],> 133 µM,> 133 µM,> 133 µM,> 133 µM
NS(=O)(=O)c1cc2c(cc1Cl)NCNS2(=O)=O [HYDROCHLOROTHIAZIDE],> 133 µM,> 133 µM,> 133 µM,> 133 µM
NS(=O)(=O)c1cc2c(cc1C(F)(F)F)NCNS2(=O)=O [HYDROFLUMETHIAZIDE],> 133 µM,> 133 µM,> 133 µM,> 133 µM
